From patent publication US20220073471A1 (JIANGSU HENGRUI MEDICINE CO., LTD., priority 2019, published 2022)

Columns and labels:
[1] = target: T1, Nav1.8 ion channel stably expressed on HEK293 cells (Homo sapiens, UniProt Q9Y5Y9); assay: Inhibitory activity on Nav1.8, manual patch clamp; format: cell-based; settings: resting, clamped at -80 mV, 1 μM TTX, read-out: IC50 on inhibiting the Nav1.8 channel activity
T1 construct: expressed in transfected cells; host or cells: HEK293
Description: The purpose of the experiment is to investigate the effect of the compounds on Nav1.8 ion channel in an in vitro experiment, wherein the Nav1.8 ion channel is stably expressed on HEK293 cells. After the Nav1.8 current becomes stable, the Nav1.8 currents before and after the administration of the compound are compared so as to obtain the effect of the compound on the Nav1.8 ion channel.
Except for NaOH and KOH used for acid titration and base titration, all the compounds used for formulating the extracellular fluid and intracellular fluid were purchased from Sigma (St. Louis, Mo.). Extracellular fluid (mM): NaCl, 137; KCl, 4; CaCl2), 1.8; MgCl2, 1; HEPES, 10; glucose, 10; pH 7.4 (NaOH titration). Intracellular fluid (mM): aspartic acid, 140; MgCl2, 2; EGTA, 11; HEPES, 10; pH 7.2 (CsOH titration). All solutions of test compound and control compound contained 1 μM TTX.
The test compound was dissolved in dimethyl sulfoxide (DMSO) at a stock concentration of 9 mM. The stock solution of the test compound was dissolved in the extracellular fluid on the day of the test and formulated into the required concentration.
1) The compound was formulated into solutions with specified concentrations, the solutions were added to the pipelines respectively in order from low to high concentration, and the pipelines were marked.
2) The cell was transferred to the perfusion tank. A positive pressure was applied to the electrode. The tip of the electrode touched the cell. The three-way valve of the air extracting device was adjusted to a three-way state. A negative pressure was applied to the electrode, so that a high-resistance seal was formed between the electrode and the cell.
The negative pressure was applied continuously, thereby causing the cell membrane to rupture and forming a current path.
3) After the current for rupturing the cell membrane became stable, perfusion of different concentrations was carried out in sequence. Once the current was stable for at least one minute, perfusion of the next concentration was carried out.
4) The perfusion tank was cleaned. The perfusion tank was rinsed with the drug solutions in order from high to low concentration, and the rinse duration for each concentration of drug solution was 20 seconds. The perfusion tank was finally rinsed with the extracellular fluid for 1 minute.
The cell was clamped at −80 mV. The cell was depolarized to 10 mV with a square wave lasting 10 milliseconds to obtain the Nav1.8 current. This procedure was repeated every 5 seconds. The maximum current caused by the square wave was measured. After the current became stable, the test compound was perfused. After the response became stable, the blocking intensity was calculated.
The data was stored in the computer system for analysis. Data collection and analysis were carried out by pCLAMP 10 (Molecular Devices, Union City, Calif.), and the analysis results were reviewed by the administrator. Stable current means that the current changes within a limited range over time. The magnitude of stable current was used to calculate the effect of the compound at the concentration.

[2] = Pharmacokinetics assay in rats after intragastrical administration; format: in vivo; settings: both sexes, Sprague-Dawley (SD), rat, plasma, po, 2 mg/kg; for Vd/F: read-out: Apparent distribution volume Vz/F; for AUC: read-out: Area under curve AUC; for bioavailability: read-out: Bioavailability F; for CL/F: read-out: Clearance CL/F; for half-life: read-out: Half-life T½ (converted); for Cmax: read-out: Plasma concentration Cmax; for MRT: read-out: Residence time MRT
Experimental: Rats were used as test animals. The drug concentration in plasma at different time points was determined by LC/MS/MS method after intragastrical administration of the compounds of Example 2, Example 11, Example 12, Example 15, Example 31 and Example 33 to rats. The pharmacokinetic behavior of the compounds of the present disclosure was studied and evaluated in rats.
Twenty-four healthy adult SD rats (half male and half female, equally divided into six groups, four rats per group) were purchased from Shanghai Jiesijie Laboratory Animal Co., LTD.
A certain amount of the test compound was weighed, to which 5% of DMSO, 5% of tween 80 and 90% of normal saline were added to prepare a 0.2 mg/mL colorless, clear and transparent solution.
After an overnight fast, SD rats were intragastrically administered the test compound at an administration dose of 2.0 mg/kg and an administration volume of 10.0 mL/kg.
The rats were intragastrically administered the compounds of Example 2, Example 11, Example 12, Example 15, Example 31 and Example 33. 0.2 ml of blood was taken from the orbit before the administration and at 0.5, 1.0, 2.0, 4.0, 6.0, 8.0, 11.0 and 24.0 hours after the administration. The samples were stored in heparinized tubes, and centrifuged for 10 minutes at 10000 rpm and 4° C. to separate the blood plasma. The plasma samples were stored at −20° C. The rats were fed 2 hours after the administration.
The content of the test compound in the plasma of rats after intragastrical administration of the test compound at different concentrations was determined: 25 μL of rat plasma at each time point after the administration was taken, to which 30 μL of the internal standard solution and 175 μL of acetonitrile were added. The resulting solution was vortex-mixed for 5 minutes, and centrifuged for 10 minutes (3700 rpm). 0.5 μL of the supernatant was taken from the plasma samples for LC/MS/MS analysis.

T1 sequence (Q9Y5Y9 whole entry): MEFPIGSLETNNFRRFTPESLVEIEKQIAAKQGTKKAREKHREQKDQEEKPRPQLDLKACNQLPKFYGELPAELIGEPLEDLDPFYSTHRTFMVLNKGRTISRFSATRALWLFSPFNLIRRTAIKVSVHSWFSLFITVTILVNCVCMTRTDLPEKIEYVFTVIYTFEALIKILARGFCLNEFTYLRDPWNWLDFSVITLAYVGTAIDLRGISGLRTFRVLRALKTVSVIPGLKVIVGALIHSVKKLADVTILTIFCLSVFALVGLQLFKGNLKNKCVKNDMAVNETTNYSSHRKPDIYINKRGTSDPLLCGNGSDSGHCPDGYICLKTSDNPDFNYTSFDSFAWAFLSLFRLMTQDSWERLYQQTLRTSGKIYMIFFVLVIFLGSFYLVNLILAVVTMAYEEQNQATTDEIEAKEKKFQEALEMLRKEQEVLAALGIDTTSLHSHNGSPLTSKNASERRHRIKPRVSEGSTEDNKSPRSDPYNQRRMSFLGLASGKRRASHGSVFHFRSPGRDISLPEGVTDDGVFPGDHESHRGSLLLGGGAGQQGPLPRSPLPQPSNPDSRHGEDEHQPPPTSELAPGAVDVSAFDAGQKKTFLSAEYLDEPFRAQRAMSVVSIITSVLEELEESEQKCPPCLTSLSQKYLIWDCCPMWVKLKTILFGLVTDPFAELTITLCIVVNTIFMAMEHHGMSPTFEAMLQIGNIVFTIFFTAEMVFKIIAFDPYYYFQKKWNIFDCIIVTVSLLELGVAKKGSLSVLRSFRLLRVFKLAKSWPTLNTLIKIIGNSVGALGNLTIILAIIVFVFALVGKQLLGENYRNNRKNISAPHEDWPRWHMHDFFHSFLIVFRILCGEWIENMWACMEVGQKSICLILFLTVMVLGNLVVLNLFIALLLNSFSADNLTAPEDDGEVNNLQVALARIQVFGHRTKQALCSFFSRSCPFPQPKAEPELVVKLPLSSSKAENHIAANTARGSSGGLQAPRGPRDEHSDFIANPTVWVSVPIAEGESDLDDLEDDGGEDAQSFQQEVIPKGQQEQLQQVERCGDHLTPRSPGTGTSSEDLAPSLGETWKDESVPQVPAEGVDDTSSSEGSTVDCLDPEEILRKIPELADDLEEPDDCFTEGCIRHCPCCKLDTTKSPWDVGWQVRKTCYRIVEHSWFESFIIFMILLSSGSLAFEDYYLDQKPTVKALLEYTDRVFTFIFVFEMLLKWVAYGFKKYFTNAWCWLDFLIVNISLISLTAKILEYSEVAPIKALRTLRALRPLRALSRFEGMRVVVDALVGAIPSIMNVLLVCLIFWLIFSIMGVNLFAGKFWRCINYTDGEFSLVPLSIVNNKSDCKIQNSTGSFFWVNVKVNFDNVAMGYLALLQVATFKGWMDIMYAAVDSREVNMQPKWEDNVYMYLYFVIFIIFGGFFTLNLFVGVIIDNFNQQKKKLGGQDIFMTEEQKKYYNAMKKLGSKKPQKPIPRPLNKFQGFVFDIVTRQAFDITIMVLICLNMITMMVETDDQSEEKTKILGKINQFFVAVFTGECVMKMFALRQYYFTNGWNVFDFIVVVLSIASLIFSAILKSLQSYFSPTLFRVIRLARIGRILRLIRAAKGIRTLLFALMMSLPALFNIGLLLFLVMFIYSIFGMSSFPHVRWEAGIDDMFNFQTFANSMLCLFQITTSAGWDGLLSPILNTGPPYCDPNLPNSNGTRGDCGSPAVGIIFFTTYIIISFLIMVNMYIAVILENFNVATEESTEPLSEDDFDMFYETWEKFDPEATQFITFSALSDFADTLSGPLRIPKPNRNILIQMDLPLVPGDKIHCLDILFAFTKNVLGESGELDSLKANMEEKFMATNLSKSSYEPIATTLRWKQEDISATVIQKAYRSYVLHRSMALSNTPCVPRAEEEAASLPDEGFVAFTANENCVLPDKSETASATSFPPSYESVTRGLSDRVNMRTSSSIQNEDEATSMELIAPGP

Row | SMILES | IC50 [1] [nM] | Vd/F [2] [L/kg] | AUC [2] [ng·h/mL] | bioavailability [2] [%] | CL/F [2] [mL/min/kg] | half-life [2] [h] | Cmax [2] [ng/mL] | MRT [2] [h]
1 | Cc1cc(F)ccc1Oc1cc(C(F)(F)F)c(Cl)cc1C(=O)Nc1cn[nH]c(=O)c1 [Example 2, 5-Chloro-2-(4-fluoro-2-methylphenoxy)-N-(6-oxo-1,6-dihydropyridazin-4-yl)-4-(trifluoromethyl)benzamide] | 1.3 | 4.71 ± 1.29 | 5960 ± 4280 | 149 | 6.24 ± 6.29 | 47 ± 54.6 | 399 ± 153 | 68.2 ± 78.3
2 | COc1cc(F)ccc1Oc1cc(C(F)(F)F)c(Cl)cc1C(=O)Nc1cn[nH]c(=O)c1 [Example 11, 5-Chloro-2-(4-fluoro-2-methoxyphenoxy)-N-(6-oxo-1,6-dihydropyridazin-4-yl)-4-(trifluoromethyl)benzamide] | 1.3 | 5.33 ± 0.72 | 1230 ± 621 | 98 | 32.3 ± 15.2 | 2.3 ± 1.14 | 218 ± 103 | 
3 | O=C(Nc1cn[nH]c(=O)c1)c1cc(Cl)c(C(F)(F)F)cc1Oc1ccc(F)cc1OC1CC1 [Example 12, 5-Chloro-2-(2-cyclopropoxy-4-fluorophenoxy)-N-(6-oxo-1,6-dihydropyridazin-4-yl)-4-(trifluoromethyl)benzamide] | 0.26 | 4.17 ± 0.587 | 5980 ± 1130 | 111 | 4.3 ± 1.65 | 13.2 ± 7.8 | 435 ± 64 | 19.8 ± 10.4
4 | O=C(Nc1cn[nH]c(=O)c1)c1cc(Cl)c(C(F)(F)F)cc1Oc1ccc(F)cc1OC(F)(F)F [Example 15, 5-Chloro-2-(4-fluoro-2-(trifluoromethoxy)phenoxy)-N-(6-oxo-1,6-dihydropyridazin-4-yl)-4-(trifluoromethyl)benzamide] | 4.7 | 7.15 ± 0.682 | 5690 ± 552 | 94 | 1.46 ± 0.11 | 56.7 ± 6.6 | 295 ± 44 | 82.4 ± 10.2
5 | O=C(Nc1cn[nH]c(=O)c1)c1cc(Cl)c(C(F)(F)F)cc1Oc1ccc(F)cc1C1CC1 [Example 31, 5-Chloro-2-(2-cyclopropyl-4-fluorophenoxy)-N-(6-oxo-1,6-dihydropyridazin-4-yl)-4-(trifluoromethyl)benzamide] | 0.94 | 5.44 ± 0.705 | 5620 ± 1230 | 66 | 3.77 ± 2.7 | 33.3 ± 34.8 | 360 ± 65 | 48.3 ± 50.3
6 | Cc1cc(F)ccc1Oc1cc(C(F)(F)F)c(Br)cc1C(=O)Nc1cn[nH]c(=O)c1 [Example 33, 5-Bromo-2-(4-fluoro-2-methylphenoxy)-N-(6-oxo-1,6-dihydropyridazin-4-yl)-4-(trifluoromethyl)benzamide] | 0.86 | 3.99 ± 0.788 | 5550 ± 3020 | 99 | 6.4 ± 5.57 | 18.6 ± 17.5 | 382 ± 88 | 27.7 ± 24.2
7 | [2H]C([2H])([2H])Oc1cc(F)ccc1Oc1cc(C(F)(F)F)c(Cl)cc1C(=O)Nc1cn[nH]c(=O)c1 [Example 35, 5-Chloro-2-(4-fluoro-2-(methoxy-d3)phenoxy)-N-(6-oxo-1,6-dihydropyridazin-4-yl)-4-(trifluoromethyl)benzamide] | 0.54 | 5.01 ± 0.875 | 4330 ± 910 | 107 | 7.93 ± 1.47 | 7.5 ± 1.92 | 392 ± 43 | 10.6 ± 2.3
8 | O=C(Nc1cn[nH]c(=O)c1)c1cc(Cl)c(C(F)(F)F)cc1Oc1ccc(F)cc1Br [Example 43, 2-(2-Bromo-4-fluorophenoxy)-5-chloro-N-(6-oxo-1,6-dihydropyridazin-4-yl)-4-(trifluoromethyl)benzamide] | 3.36 |  |  |  |  |  |  | 
9 | [2H]C([2H])([2H])c1cc(F)ccc1Oc1cc(C(F)(F)F)c(Cl)cc1C(=O)Nc1cn[nH]c(=O)c1 [Example 44, 5-Chloro-2-(4-fluoro-2-(methyl-d3)phenoxy)-N-(6-oxo-1,6-dihydropyridazin-4-yl)-4-(trifluoromethyl)benzamide] | 4.04 |  |  |  |  |  |  | 
10 | O=C(Nc1cn[nH]c(=O)c1)c1cc(Cl)c(C(F)(F)F)cc1Oc1ccc(F)cc1Cl [Example 45, 5-Chloro-2-(2-chloro-4-fluorophenoxy)-N-(6-oxo-1,6-dihydropyridazin-4-yl)-4-(trifluoromethyl)benzamide] | 5.08 |  |  |  |  |  |  | 
11 | O=C(Nc1cn[nH]c(=O)c1)c1cc(Cl)c(C(F)(F)F)cc1Oc1ccc(F)cc1F [Example 46, 5-Chloro-2-(2,4-difluorophenoxy)-N-(6-oxo-1,6-dihydropyridazin-4-yl)-4-(trifluoromethyl)benzamide] | 8.95 |  |  |  |  |  |  | 
